The target in assay [1] is human PPARγ2 (Homo sapiens (Human), UniProt P37231). Put plainly: PPARγ activation effect, Gal4-PPARγ2 LBD luciferase transfection assay in COS7 cells. Particulars: Gal4-human PPARγ2 LBD chimera, luciferase reporter; for EC50: 16 hours, rosiglitazone = 100%. The format is cell-based. The method, then: The agonistic activity of the compounds of the invention on PPARγ was measured based on the transfection assay using COS7 cells (DS Pharma Biomedical Co., Ltd., Osaka, Japan), which are the cell line derived from the kidney of the African green monkey. COS7 cells were cultured under 5% CO2 concentration, and DMEM medium containing 10% fetal bovine serum, glutamic acid, and antibiotics was used as a medium.
As an expression vector, a chimera in which DNA binding domain of Gal4, which is a yeast transcription factor, and ligand binding domain of human PPARγ2 are fused, i.e., a fused product between the amino acids 1 to 147 of Gal4 transcription factor and the amino acids 182 to 505 of human PPARγ2, was used. Furthermore, as a reporter vector, a firefly luciferase containing five copies of Gal4 recognition sequence in the promoter region was used. Plasmid transfection to the cells was performed according to a method which uses jetPEI (trade name, manufactured by Funakoshi Co., Ltd., Tokyo, Japan). Furthermore, β-galactosidase expression vector was employed as an internal standard.
After the transfection into the cells, the medium was replaced with a DMEM medium (containing 1% serum) added with the test compound, and the cells were further cultured for 16 hours. After that, the luciferase activity and β-galactosidase activity in the cell lysis solution were measured.
Meanwhile, for the present test, dimethylsulfoxide (DMSO) was used for dissolution and dilution of the test compounds, and during the cell treatment, the DMSO concentration in DMEM medium (containing 1% serum) was adjusted to 0.1%. As a positive compound, rosiglitazone (trade name, manufactured by ALEXIS Corporation, Switzerland) was used. The percentage (%) of the luciferase activity of the each test compound (1 to 30 μmol/L) was calculated when the luciferase activity of rosiglitazone (3 to 10 μmol/L) is 100% and the luciferase activity in the absence of the test compound is 0%. The 50% effective concentration of the test compound (EC50, 50% effect concentration) was calculated by using SAS Preclinical Package Ver 5.0 (trade name, manufactured by SAS institute Japan Co., Tokyo, Japan), which is a statistical analysis program.
In general terms: Reporter assays use an easily measured gene product as a stand-in for the process of interest.

The target in assay [2] is angiotensin II type 1 receptor (Oryctolagus cuniculus (Rabbit), UniProt P34976). Put plainly: Angiotensin II antagonistic activity in isolated rabbit blood vessels (angiotensin II-induced contraction of thoracic aorta ring). The following applies: test compound 0.1 μM, angiotensin II 10 nM-induced contraction, read-out: Rate (%) of inhibiting angiotensin II activity at concentration of 0.1 μM.
Sequence of angiotensin II type 1 receptor (P34976 whole entry): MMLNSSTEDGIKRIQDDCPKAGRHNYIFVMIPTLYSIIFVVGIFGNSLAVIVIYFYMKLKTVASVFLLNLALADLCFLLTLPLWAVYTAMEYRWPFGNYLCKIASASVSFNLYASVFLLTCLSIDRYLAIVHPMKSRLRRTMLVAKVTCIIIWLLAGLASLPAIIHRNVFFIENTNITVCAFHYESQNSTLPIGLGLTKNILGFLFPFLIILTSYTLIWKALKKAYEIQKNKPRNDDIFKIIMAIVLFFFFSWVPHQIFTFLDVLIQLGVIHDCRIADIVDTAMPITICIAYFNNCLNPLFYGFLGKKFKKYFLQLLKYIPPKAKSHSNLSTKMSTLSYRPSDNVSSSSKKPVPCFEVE
Protocol: By using a specimen of isolated rabbit blood vessels, antagonistic activity of the compounds of the invention against angiotensin II type 1 receptor was calculated from a dose-response curve of angiotensin II-induced blood vessel contraction. Specifically, the specimen of thoracic aorta ring of a rabbit (New Zealand White: male, 2.4 to 3.0 kg) was suspended in a rmagnus bath filled with Krebs-Henseleite buffer (composition: 118 mM NaCl, 4.7 mM KCl, 2.55 mM CaCl2, 1.18 mM MgSO4, 1.18 mM KH2PO4, 24.88 mM NaHCO3, and 11.1 mM D-glucose), and angiotensin II (10 n M)-induced contraction was obtained in the presence of each test compound (1 n mol/L to 10 μmol/L). During the measurement, the inside temperature of the magnus bath was maintained at 37° C. and the bath was continuously ventilated with a sufficient amount of mixed gas (95% O2 and 5% CO2). The angiotensin II-induced contraction was converted into a relative value (%) that is based on the angiotensin II (0.1 μM)-induced contraction in the absence of the test compound.

Sequence of human PPARγ2 (P37231 182-505): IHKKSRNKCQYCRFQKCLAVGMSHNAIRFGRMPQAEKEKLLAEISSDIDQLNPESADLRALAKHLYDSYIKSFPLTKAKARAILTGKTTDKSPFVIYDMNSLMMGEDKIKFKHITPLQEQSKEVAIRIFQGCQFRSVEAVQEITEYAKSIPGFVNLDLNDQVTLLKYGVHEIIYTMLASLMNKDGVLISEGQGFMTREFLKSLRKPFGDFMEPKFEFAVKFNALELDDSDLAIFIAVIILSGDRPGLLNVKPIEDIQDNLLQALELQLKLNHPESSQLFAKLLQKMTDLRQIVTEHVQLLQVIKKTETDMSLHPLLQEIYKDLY

Broadly, the EC50 is the concentration that produces a half-maximal response. Read a low EC50 as greater potency. As to `CCCCCc1nc(C(C)C)n(-c2ncc(OCC)cn2)c(=O)c1Cc1ccc(-c2ccccc2-c2noc(=O)[nH]2)nc1` [Example 42, 3-{2-{5-{[1-(5-ethoxypyrimidin-2-yl)-2-isopropyl-6-oxo-4-pentyl-1,6-dihydropyrimidin-5-yl]methyl}pyridin-2-yl}phenyl}-1,2,4-oxadiazol-5(4H)-one], in assay [1], the “% MAX vs Rosiglitazone (maximum activity strength relative to the maximum activity of rosiglitazone)” value amounted to 53% and it took 650 nM to reach a half-maximal effect (EC50).
On to `CCCc1nc(C2CC2)n(-c2ncc(OCC)cn2)c(=O)c1Cc1ccc(-c2ccccc2-c2noc(=O)[nH]2)nc1` [Example 41, 3-{2-{5-{[2-cyclopropyl-1-(5-ethoxypyrimidin-2-yl)-6-oxo-4-propyl-1,6-dihydropyrimidin-5-yl]methyl}pyridin-2-yl}phenyl}-1,2,4-oxadiazol-5(4H)-one], for which, in assay [2], the inhibition at 0.1 µM was determined as 89.9%. In addition, in assay [1], the “% MAX vs Rosiglitazone (maximum activity strength relative to the maximum activity of rosiglitazone)” value is recorded as 65% and the EC50 came to 560 nM.
Consider `CCCCCc1nc(C2CC2)n(-c2ncc(OCC)cn2)c(=O)c1Cc1ccc(-c2ccccc2-c2noc(=O)[nH]2)nc1` [Example 43, 3-{2-{5-{[2-cyclopropyl-1-(5-ethoxypyrimidin-2-yl)-6-oxo-4-pentyl-1,6-dihydropyrimidin-5-yl]methyl}pyridin-2-yl}phenyl}-1,2,4-oxadiazol-5(4H)-one], for which, in assay [1], the “% MAX vs Rosiglitazone (maximum activity strength relative to the maximum activity of rosiglitazone)” value was 42% and the concentration for a half-maximal effect (EC50) is 590 nM.
For `CCCc1nc2c(C)cc(-c3nc4ccccc4n3C)cc2n1Cc1ccc(-c2ccccc2C(=O)O)cc1` [telmisartan, reference compound], the inhibition at 0.1 µM in assay [2] was determined as 85.3%.
Consider `CCCc1nc(C(C)C)n(-c2ncc(OCC)cn2)c(=O)c1Cc1ccc(-c2ccccc2-c2noc(=O)[nH]2)nc1` [Example 40, 3-{2-{5-{[1-(5-ethoxypyrimidin-2-yl)-2-isopropyl-6-oxo-4-propyl-1,6-dihydropyrimidin-5-yl]methyl}pyridin-2-yl}phenyl}-1,2,4-oxadiazol-5(4H)-one], for which the inhibition at 0.1 µM in assay [2] stood at 68.3%. In assay [1], the “% MAX vs Rosiglitazone (maximum activity strength relative to the maximum activity of rosiglitazone)” value was determined as 69% and it took 400 nM to reach a half-maximal effect (EC50).

These data come from patent US9315493B2, “Phenylpyridine derivative and drug containing same” (KOWA COMPANY, LTD., priority 2011, dated 2016).
